Results: article PMC4706532, “Diarylthiophenes as inhibitors of the pore-forming protein perforin” (Bioorganic & Medicinal Chemistry Letters, 2016)
≈ marks a conversion by molar mass, not a printed value.

Tests used:
recombinant perforin = target: T1, recombinant perforin (Mus musculus, UniProt P10820); assay: Inhibition of perforin-mediated lysis of Jurkat cells (51Cr release); details: isolated perforin
T1 sequence (P10820 21-554): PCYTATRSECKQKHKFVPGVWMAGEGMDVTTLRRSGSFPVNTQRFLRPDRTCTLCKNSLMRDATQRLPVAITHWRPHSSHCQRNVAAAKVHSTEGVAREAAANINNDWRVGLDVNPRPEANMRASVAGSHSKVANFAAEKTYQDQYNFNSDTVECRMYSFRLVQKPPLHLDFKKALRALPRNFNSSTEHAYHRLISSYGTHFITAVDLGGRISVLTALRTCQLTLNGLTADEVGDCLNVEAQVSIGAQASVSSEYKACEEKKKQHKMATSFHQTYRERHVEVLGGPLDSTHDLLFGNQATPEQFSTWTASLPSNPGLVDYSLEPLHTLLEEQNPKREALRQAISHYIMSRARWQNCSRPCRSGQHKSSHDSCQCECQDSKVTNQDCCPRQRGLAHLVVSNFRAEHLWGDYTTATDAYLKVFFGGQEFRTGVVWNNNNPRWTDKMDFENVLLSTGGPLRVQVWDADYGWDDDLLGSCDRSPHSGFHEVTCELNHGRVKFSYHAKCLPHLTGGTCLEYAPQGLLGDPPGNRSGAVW
Protocol: The ability of the compounds to inhibit the lysis of nucleated (Jurkat T lymphoma) cells in the presence of 0.1% BSA, as measured by release of ^51Cr was measured. Jurkat target cells were labelled by incubation in medium with 100 µCi ^51Cr for one hour. The cells were then washed three times to remove unincorporated isotope and re-suspended at 1 x 10^5 cells per mL in RPMI buffer supplemented with 0.1% BSA. Each test compound was pre-incubated to concentrations of 20, 10, 5, 2.5 and 1.25 µM with recombinant perforin for 30 min with DMSO as a negative control. ^51Cr labelled Jurkat cells were then added and cells were incubated at 37 °C for 4 h. The supernatant was collected and assessed for its radioactive content on a gamma counter (Wallac Wizard 1470 automatic gamma counter). Each data point was performed in triplicate and an IC50 was calculated from the range of concentrations described to above.

Solubility in water = details: for solubility: water

Row | SMILES | melting point [°C] | Inhibition of perforin lytic activity in Jurkat assay (in words) (recombinant perforin) | other results
1 | O=C1OCc2cc(-c3ccc(-c4ccccc4)s3)ccc21 [Compound 6] | 231 to 233 |  | 
2 | Cc1ccccc1-c1ccc(-c2ccc3c(c2)COC3=O)s1 [Compound 7] | 109 to 111 |  | 
3 | Cc1cccc(-c2ccc(-c3ccc4c(c3)COC4=O)s2)c1 [Compound 8] | 192 to 194 |  | 
4 | Cc1ccc(-c2ccc(-c3ccc4c(c3)COC4=O)s2)cc1 [Compound 9] | 184 to 186 |  | 
5 | O=C1OCc2cc(-c3ccc(-c4ccccc4Cl)s3)ccc21 [Compound 10] | 131 to 133 |  | 
6 | O=C1OCc2cc(-c3ccc(-c4cccc(Cl)c4)s3)ccc21 [Compound 11] | 207 to 209 |  | 
7 | O=C1OCc2cc(-c3ccc(-c4ccc(Cl)cc4)s3)ccc21 [Compound 12] | 231 to 234 |  | 
8 | COc1ccccc1-c1ccc(-c2ccc3c(c2)COC3=O)s1 [Compound 13] | 190 to 192 | no detectable inhibition | 
9 | COc1cccc(-c2ccc(-c3ccc4c(c3)COC4=O)s2)c1 [Compound 14] | 165 to 167 | no detectable inhibition | 
10 | COc1ccc(-c2ccc(-c3ccc4c(c3)COC4=O)s2)cc1 [Compound 15] | 224 to 227 |  | 
11 | O=C1OCc2cc(-c3ccc(-c4cccc(O)c4)s3)ccc21 [Compound 18] | 276 to 279 |  | 
12 | O=C1OCc2cc(-c3ccc(-c4ccc(O)cc4)s3)ccc21 [Compound 19] | 279 to 282 | loses all activity | 
13 | N#Cc1cccc(-c2ccc(-c3ccc4c(c3)COC4=O)s2)c1 [Compound 20] | 250 to 251 | activity is lost altogether | 
14 | NC(=O)c1cccc(-c2ccc(-c3ccc4c(c3)COC4=O)s2)c1 [Compound 22] | 259 to 263 |  | 
15 | NC(=O)c1ccc(-c2ccc(-c3ccc4c(c3)CNC4=O)s2)cc1 [Compound 23a] |  | loss of activity | 
16 | CN1Cc2cc(-c3ccc(-c4ccc(C(N)=O)cc4)s3)ccc2C1=O [Compound 23b] | 287 to 290 | loss of activity | 
17 | CNC(=O)c1ccc(-c2ccc(-c3ccc4c(c3)COC4=O)s2)cc1 [Compound 29] | 299 to 302 | loss of efficacy | 
18 | CN(C)C(=O)c1ccc(-c2ccc(-c3ccc4c(c3)COC4=O)s2)cc1 [Compound 30] | 290 to 292 | abolishes activity completely | 

Row | SMILES | melting point [°C] | Inhibition of perforin lytic activity in Jurkat assay (in words) (recombinant perforin) | other results
19 | CN1CCN(C(=O)c2ccc(-c3ccc(-c4ccc5c(c4)COC5=O)s3)cc2)CC1 [Compound 31] |  | abolishes activity completely | 
20 | CN(C)CCCNC(=O)c1ccc(-c2ccc(-c3ccc4c(c3)COC4=O)s2)cc1 [Compound 32] | 185 to 188 | poor activity or were inactive | 
21 | CCOC(=O)c1ccc(-c2ccc(-c3ccc4c(c3)COC4=O)s2)cc1O [Compound 40] | 208 to 210 |  | 
22 | O=C(NCCN1CCOCC1)c1ccc(-c2ccc(-c3ccc4c(c3)COC4=O)s2)cc1O [Compound 49] |  | poor activity or were inactive | 
23 | CN(C)CCNC(=O)c1ccc(-c2ccc(-c3ccc4c(c3)COC4=O)s2)cc1O [Compound 50] | 242 to 245 | poor activity or were inactive | 
24 | O=C(NCCO)c1ccc(-c2ccc(-c3ccc4c(c3)COC4=O)s2)cc1O [Compound 51] |  |  | solubility (Solubility in water): 15.7 µg/mL (≈ 39.7 µM)
25 | CC(O)CNC(=O)c1ccc(-c2ccc(-c3ccc4c(c3)COC4=O)s2)cc1O (centres unmarked) [Compound 52] | 241 to 244 |  | 
26 | NC(=O)CNC(=O)c1ccc(-c2ccc(-c3ccc4c(c3)COC4=O)s2)cc1O [Compound 53] |  |  | solubility (Solubility in water): 4.7 µg/mL (≈ 11.5 µM)
27 | NC(=O)c1ccc(-c2ccc(-c3ccc4c(c3)COC4=O)s2)cc1N [Compound 55] |  |  | solubility (Solubility in water): 9.4 µg/mL (≈ 26.8 µM)
28 | Nc1cc(-c2ccc(-c3ccc4c(c3)COC4=O)s2)ccc1C(=O)NCCN1CCOCC1 [Compound 56] | 209 to 211 | poor activity or were inactive | 
29 | CN(C)CCNC(=O)c1ccc(-c2ccc(-c3ccc4c(c3)COC4=O)s2)cc1N [Compound 57] | 185 to 188 | poor activity or were inactive | 
30 | CSc1ccc(-c2ccc(-c3ccc4c(c3)COC4=O)s2)cc1 [Compound 58] | 239 to 241 |  | 
31 | CS(=O)(=O)c1ccc(-c2ccc(-c3ccc4c(c3)COC4=O)s2)cc1 [Compound 60] | 278 to 280 |  | 
32 | NS(=O)(=O)c1cccc(-c2ccc(-c3ccc4c(c3)COC4=O)s2)c1 [Compound 61] | 273 to 276 |  | 
33 | CC(C)(C)NS(=O)(=O)c1ccc(-c2ccc(-c3ccc4c(c3)COC4=O)s2)cc1 [Compound 62] | 255 to 257 |  | 
34 | O=C1OCc2cc(-c3ccc(-c4ccncc4)s3)ccc21 [Compound 70] | 260 to 261 |  | 
35 | O=C1OCc2cc(-c3ccc(-c4ccc5c(c4)COC5=O)s3)ccc21 [Compound 71] |  | only moderately potent | Solubility (in words) (Solubility in water): extremely insoluble
